From US20090259043A1, “TRICYCLIC CYTOPROTECTIVE COMPOUNDS” (HUNTER-FLEMING LIMITED, priority 2005, published 2009)

What was measured:
[1] = tested on: organotypic hippocampal slice cultures; test: Neuroprotection against hypoxia in organotypic hippocampal slice cultures (PI fluorescence in CA1); assay type: cell-based, Wistar rat; settings: vs control (hypoxia only = 100% damage); 180 min hypoxia; compound present 45 min pre-hypoxia, during and 24 h post-hypoxia; PI fluorescence area in CA1
Experimental: Organotypic hippocampal slice cultures were prepared using the basic method of Pringle et al [Brain Res. 755, 36-46 (1997)] modified as follows:
Wistar rat pups (8-11 days old) were decapitated and the hippocampus rapidly dissected into ice-cold Gey's balanced salt solution supplemented with 4.5 mg/ml glucose. Slices were separated and plated onto Millicell CM culture inserts (4 per well) and maintained at 37° C./5% CO2 for 14 days. Maintenance medium consisted of 25% heat-inactivated horse serum, 25% Hank's balanced salt solution (HBSS) and 50% minimum essential medium with added Earle's salts (MEM) supplemented with 1 mM glutamine and 4.5 mg/ml glucose. Medium was changed every 3-4 days.
Experimental hypoxia was performed as described previously (Pringle et al., Stroke 27, 21-24 (1996)& Brain Res. 755, 36-46 (1997)]. Briefly, cultures were transferred to serum free medium (SFM-75% MEM, 25% HBSS supplemented with 1 mM glutamine and 4.5 mg/ml glucose) containing 5 μg/ml of the fluorescent exclusion dye propidium iodide (PI). Cultures were allowed to equilibrate in SFM for 60 minutes prior to imaging. PI fluorescence was detected using a Leica DMIL inverted microscope fitted with a rhodamine filter set. Any cultures in which PI fluorescence was detected at this stage were excluded from further study. Hypoxia was induced by transferring cultures to SFM (+PI) which had been saturated with 95% N2/5% CO2. Culture plates (without lids) were then sealed into an airtight chamber in which the atmosphere was saturated with 95% N2/5% CO2 by continuously blowing through gas at 10 L/minute for ten minutes before being sealed and placed in the incubator for 170 minutes (total time of hypoxia was therefore 180 minutes). At the end of the hypoxic period cultures were returned to normoxic SFM containing PI and placed back in the incubator for 24 hours.
Neuronal damage was assessed using ImageJ running on a PC. Images were captured using a CCD camera and saved for offline analysis. Light transmission images were captured prior to the addition of drugs, and PI fluorescence images recorded at the end of the 24-hour post-hypoxia recovery period. The area of the CA1 sub-region was determined from the transmission image. The area of PI fluorescence in the CA1 was measured using the threshold function on ImageJ, and neuronal damage expressed as the percentage of the CA1 in which PI fluorescence was detected above background.
Unpaired Student's t-tests were employed to ascertain statistical significance.
A series of compounds were examined for possible neuroprotection against hypoxia in organotypic hippocampal slice cultures. Compounds No. 4, 6, 7, 8, 10, 14, 15, 16, 17, 20, 21, 22 and 23 were dissolved in DMSO to a concentration of 1 mg/ml.
7β-hydroxy-epiandrosterone (7β-OH EPIA), a neuroprotective compound, at 100 nM concentrations, was employed as a positive control. A stock solution of 1 mg/ml was dissolved in ethanol. Final dilutions were made in SFM.
The efficacy of all compounds was assessed using a pre-during and post-hypoxia paradigm—compounds were present in the medium 45 minutes pre-hypoxia, the 3 hours of hypoxia and 24 hours post-hypoxia.

| Structure (SMILES) | melting point | % damage in hypoxia model with compound [1] [%] |
| --- | --- | --- |
| Cc1ccc(C)c2c3c([nH]c12)CCC(O)C3 (stereo not drawn) | 158 to 161 °C | – |
| Cc1ccc(C)c2c3c([nH]c12)CC(C(=O)O)CC3 (stereo not drawn) | 228 to 230 °C | – |
| OC1CCc2[nH]c3ccccc3c2C1 (stereo not drawn) [Compound No. 4, 2,3,4,9-Tetrahydro-1H-carbazol-3-ol] | – | 58 |
| c1ccc2c3c([nH]c2c1)CCC1(C3)OCCO1 [Compound No. 6, 1,2,4,9-Tetrahydro-spiro[carbazole-3,2′-[1,3-dioxolane]] | – | 63 |
| O=C1CCc2[nH]c3ccccc3c2C1 [Compound No. 7, 1,2,4,9-Tetrahydro-3H-carbazol-3-one] | – | 70 |
| O=C1CCc2[nH]c3ccccc3c21 [Compound No. 8, 3,4-dihydrocyclopenta[b]indol-1 (2H)-one] | – | 59 |
| Cc1ccc2c3c([nH]c2c1C)CCC(O)C3 (stereo not drawn) [Compound No. 10, 7,8-Dimethyl-2,3,4,9-tetrahydro-1H-carbazol-3-ol] | 192 to 195 °C | 76 |
| COc1ccc2[nH]c3c(c2c1)CS(=O)(=O)CC3 [Compound No. 12, 8-Methoxy-1,3,4,5-tetrahydrothiopyrano[43-b]indole 2,2-dioxide] | 283 to 286 °C (dec.) | – |
| O=C(O)c1ccc2[nH]c3c(c2c1)CCCC3=O [Compound No. 14, 1-Oxo-2,3,4,9-tetrahydro-1H-carbazole-6-carboxylic acid] | – | 53 |
| COc1ccc2[nH]c3c(c2c1)CCC(C(=O)O)C3 (stereo not drawn) [Compound No. 15, 6-Methoxy-2,3,4,9-tetrahydro-11H-carbazole-2-carboxylic acid] | – | 65 |
| COc1ccc2[nH]c3c(c2c1)CCC3 [Compound No. 17, 7-Methoxy-1,2,3,4-tetrahydrocyclopenta[b]indole] | 128 to 130 °C | 35 |
| O=C(O)c1ccc2[nH]c3c(c2c1)CCC3 [Compound No. 18, 1,2,3,4-Tetrahydrocyclopenta[b]indole-7-carboxylic acid] | 270 to 274 °C | – |
| O/N=C1\CCCc2[nH]c3ccccc3c21 [Compound No. 20, (4E)-1,2,3,9-Tetrahydro-4H-carbazol-4-one oxime] | – | 54 |
| O/N=C1\CCc2[nH]c3ccccc3c2C1 [Compound No. 21, (3E)-1,2,4,9-Tetrahydro-3H-carbazol-3-one oxime] | 173 to 175 °C (dec.) | 40 |
| COc1ccc2[nH]c3c(c2c1)CC1(CC3)OCCO1 [Compound No. 22] | 168 to 169 °C | 75 |
| COc1ccc2[nH]c3c(c2c1)CCCC3 [compound 16, Methyl 2,3,4,9-tetrahydro-1H-carbazol-6-yl ether] | – | 60 |
| COc1ccc2[nH]c3c(c2c1)CC(=O)CC3 [compound 23, 6-Methoxy-1,2,4,9-tetrahydro-3H-carbazol-3-one] | – | 57 |
